Earlier results as cited in patent US7057165B2, “Probe for mass spectrometry” (Sense Proteomic Ltd., priority 2001, dated 2006).

Biological target: T1, lectin from Arachis hypogea (Arachis hypogaea, UniProt P02872)
T1 construct: biotin (biotinylated lectin)
T1 sequence (P02872 24-259 limits assumed): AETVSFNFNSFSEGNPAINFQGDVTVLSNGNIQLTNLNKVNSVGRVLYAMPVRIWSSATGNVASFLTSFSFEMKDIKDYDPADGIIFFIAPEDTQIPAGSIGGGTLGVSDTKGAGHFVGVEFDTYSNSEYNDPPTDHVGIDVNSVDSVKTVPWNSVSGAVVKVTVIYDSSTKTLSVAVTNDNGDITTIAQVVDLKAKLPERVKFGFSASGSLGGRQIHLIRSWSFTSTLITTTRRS

OC[C@H]1O[C@@H](O[C@H]2[C@H](O)[C@@H](O)C(O)O[C@@H]2CO)[C@H](O)[C@@H](O)[C@H]1O (stereo partly shown) [lactose]
binding constant for this lectin: millimolar range
